Data on 20 compounds can be found in ChEMBL document CHEMBL3352781, “Synthesis, antileishmanial and antitrypanosomal activities of N-substituted tetrahydro-β-carbolines” (Bioorg Med Chem Lett, 2014).

In series [1] the test system is THP-1. As to the kind of experiment: Cytotoxicity against human THP1 cells up to 10 ug/ml after 48 hrs by neutral red assay. In kind it is cell-based. The note with it: thp-1, 48 h.
Series [2] relates to Leishmania donovani. Put plainly: Antimicrobial activity against promastigote stage of Leishmania donovani infected in human THP1 cells after 72 hrs by Alamar Blue assay. In kind it is functional, organism-based. (In general: Resazurin is reduced to fluorescent resorufin, in cell work by metabolically active cells.)
Series [3] concerns Leishmania donovani. As to the kind of experiment: Antimicrobial activity against promastigote stage of Leishmania donovani after 72 hrs by Alamar Blue assay. Format: functional, organism-based.
Series [4] has as its system HepG2. As to the kind of experiment: Cytotoxicity against human HepG2 cells up to 25 ug/ml after 48 hrs by neutral red assay. Format: cell-based. The note with it: hepg2, 48 h.
Series [5] concerns Leishmania donovani. As to the kind of experiment: Antimicrobial activity against axenic amastigote stage of Leishmania donovani after 72 hrs by Alamar Blue assay. In kind it is functional, organism-based.
Series [6] has as its system LLC-PK1. Put plainly: Cytotoxicity against pig LLC-PK1 cells up to 25 ug/ml after 48 hrs by neutral red assay. Format: cell-based, Sus scrofa. The note with it: llc-pk1, 48 h.
For series [7], the system named is Trypanosoma brucei. As to the kind of experiment: Antimicrobial activity against trypamastigote stage of Trypanosoma brucei after 72 hrs by Alamar Blue assay. Format: functional, organism-based.
Series [8] relates to Vero. Put plainly: Cytotoxicity against African green monkey Vero cells up to 25 ug/ml after 48 hrs by neutral red assay. In kind it is cell-based. The note with it: chlorocebus sabaeus.
Where [9] appears, read: Leishmania donovani, 72 h, read-out: IC50.
Where [10] appears, read: Trypanosoma brucei, 72 h, read-out: IC50.
Setting [11] is: Leishmania donovani, THP-1, 72 h.

Each structure is given as a SMILES string. The source made the active and inactive calls. The rule behind the calls is not given here. Where only a bound is given, the exact number is not on record here.

Broadly, the IC90 is the concentration at which the effect reaches the 90% level. As a reminder, the IC50 is the concentration that inhibits the measured activity by half. Consider `Clc1ccc(CN2CCc3c([nH]c4ccccc34)C2)s1`, for which the Activity result in series [1], in series [4], in series [6] and in series [8] was “Non-toxic” throughout. In addition, the IC90 result in series [2] (THP-1) and in series [5] was “inactive” each time. Further, the half-inhibitory concentration (IC50) result is “Not Active” in series [2] (thp-1), 9.1 µM in series [3] (setting [9]), “Not Active” in series [5] and 8.9 µM in series [7] (setting [10]). Besides, the IC90 in series [3] (Leishmania donovani, 72 h) was 25.6 µM; in series [7] (Trypanosoma brucei, 72 h), 14.5 µM.

Regarding `c1ccc2c(CN3CCc4c([nH]c5ccccc45)C3)c3ccccc3cc2c1`, the Activity entry in series [1], in series [4], in series [6] and in series [8] was “Non-toxic” each time. The IC90 entry in series [2] (THP-1) was “inactive”. Further, the IC50 entry in series [2] (thp-1) is “Not Active”; in series [3] (setting [9]), 16 µM; in series [5] (setting [9]) it was 80.4 µM; in series [7] (setting [10]), 11 µM. Further, the IC90 was 76 µM in series [3] (Leishmania donovani, 72 h); 104 µM in series [5] (Leishmania donovani, 72 h); 18.8 µM in series [7] (Trypanosoma brucei, 72 h).

With `O=C1NCCN1C(=O)N1CCc2c([nH]c3ccccc23)C1`, the IC90 result in series [2] (THP-1), in series [3], in series [5] and in series [7] was “inactive” in each case. Moreover, the IC50 result in series [2] (thp-1), in series [3], in series [5] and in series [7] was “Not Active” each time.

Regarding `O=C(c1ccc(Br)o1)N1CCc2c([nH]c3ccccc23)C1`, the Activity result in series [1], in series [4], in series [6] and in series [8] was “Non-toxic” each time. In series [2] (THP-1), the IC90 entry was “inactive”. Further, the IC50 result in series [2] (thp-1) was “Not Active”; in series [3] (setting [9]), 27.5 µM; in series [5] (setting [9]), 96.5 µM; in series [7] (setting [10]), 13.7 µM. The IC90 amounted to 122 µM in series [5] (Leishmania donovani, 72 h) and 23.9 µM in series [7] (Trypanosoma brucei, 72 h).

Turning to `O=C(c1cnccn1)N1CCc2c([nH]c3ccccc23)C1`, the IC90 result in series [2] (THP-1), in series [3], in series [5] and in series [7] was “inactive” throughout. Besides, the IC50 result in series [2] (thp-1), in series [3], in series [5] and in series [7] was “Not Active” throughout.

On to `O=[N+]([O-])c1ccc(CN2CCc3c([nH]c4ccccc34)C2)o1`, for which the Activity result in series [1], in series [4], in series [6] and in series [8] was “Non-toxic” throughout. In series [2] (THP-1), the IC90 result was “inactive”. The IC50 entry in series [2] (thp-1) was “Not Active”; in series [3] (setting [9]) it was 33.8 µM; in series [5] (setting [9]) it was 117 µM; in series [7] (setting [10]) it was 1 µM. The IC90 in series [7] (Trypanosoma brucei, 72 h) came to 28.1 µM.

Turning to `NCCCC(N)(C(=O)O)C(F)F` (centres undefined) [EFLORNITHINE], the concentration for an effect of 90% (IC90) in series [7] (Trypanosoma brucei, 72 h) amounted to 68.2 µM. Besides, in series [7] (setting [10]), the half-inhibitory concentration (IC50) is 28 µM.

`Cn1cc(C(=O)N2CCc3c([nH]c4ccccc34)C2)c2ccccc21`: the Activity result in series [1], in series [4], in series [6] and in series [8] was “Non-toxic” each time. For the same compound, the IC90 result in series [2] (THP-1), in series [5] and in series [7] was “inactive” each time. Besides, the half-maximal inhibitory concentration (IC50) entry is “Not Active” in series [2] (thp-1), 52.6 µM in series [3] (setting [9]), “Not Active” in series [5] and “Not Active” in series [7].

Regarding `c1ccc2nc(CN3CCc4c([nH]c5ccccc45)C3)ccc2c1`, the IC90 entry in series [2] (THP-1), in series [3], in series [5] and in series [7] was “inactive” each time. For the same compound, the IC50 entry in series [2] (thp-1), in series [3], in series [5] and in series [7] was “Not Active” throughout.

In the case of `Cc1ccsc1C(=O)N1CCc2c([nH]c3ccccc23)C1`, the Activity entry in series [1], in series [4], in series [6] and in series [8] was “Non-toxic” in each case. For the same compound, the IC90 entry in series [2] (THP-1), in series [5] and in series [7] was “inactive” throughout. The concentration for half-maximal inhibition (IC50) entry was “Not Active” in series [2] (thp-1), 26 µM in series [3] (setting [9]), “Not Active” in series [5] and “Not Active” in series [7].

In the case of `O=C(c1cc2ccccc2o1)N1CCc2c([nH]c3ccccc23)C1`, the Activity result in series [1], in series [4], in series [6] and in series [8] was “Non-toxic” throughout. For the same compound, the IC90 entry in series [2] (THP-1) and in series [7] was “inactive” in each case. Moreover, the IC50 result was “Not Active” in series [2] (thp-1), 49.5 µM in series [3] (setting [9]), 116 µM in series [5] (setting [9]) and “Not Active” in series [7]. The concentration for an effect of 90% (IC90) in series [3] (Leishmania donovani, 72 h) was determined as 120 µM.

Take `O=C(c1ccc(-c2cccc([N+](=O)[O-])c2)o1)N1CCc2c([nH]c3ccccc23)C1`: the Activity entry in series [1], in series [4], in series [6] and in series [8] was “Non-toxic” in each case. Also, the IC90 entry in series [2] (THP-1), in series [5] and in series [7] was “inactive” each time. Besides, the 50% inhibitory concentration (IC50) entry was “Not Active” in series [2] (thp-1), 66.7 µM in series [3] (setting [9]), “Not Active” in series [5] and “Not Active” in series [7].

Turning to `Cc1noc(C)c1CN1CCc2c([nH]c3ccccc23)C1`, the Activity entry in series [1], in series [4], in series [6] and in series [8] was “Non-toxic” in each case. The IC90 entry in series [2] (THP-1), in series [3] and in series [5] was “inactive” throughout. Further, the IC50 entry was “Not Active” in series [2] (thp-1), “Not Active” in series [3], “Not Active” in series [5] and 15.9 µM in series [7] (setting [10]). Moreover, it took 26.3 µM to reach the 90% level in series [7] (Trypanosoma brucei, 72 h) (IC90).

With `c1ccc2[nH]c(CN3CCc4c([nH]c5ccccc45)C3)nc2c1`, the Activity entry in series [1], in series [4], in series [6] and in series [8] was “Non-toxic” each time. Further, the IC90 entry in series [2] (THP-1) and in series [5] was “inactive” throughout. Further, the concentration for half-maximal inhibition (IC50) entry in series [2] (thp-1) was “Not Active”; in series [3] (setting [9]), 118 µM; in series [5] it was “Not Active”; in series [7] (setting [10]), 29.7 µM.

In the case of `CN1CCN(C(=O)N2CCc3c([nH]c4ccccc34)C2)CC1`, the IC90 result in series [2] (THP-1), in series [3], in series [5] and in series [7] was “inactive” each time. Further, the half-maximal inhibitory concentration (IC50) entry in series [2] (thp-1), in series [3], in series [5] and in series [7] was “Not Active” in each case.

For the compound `Cc1ncsc1C(=O)N1CCc2c([nH]c3ccccc23)C1`, the IC90 result in series [2] (THP-1), in series [3], in series [5] and in series [7] was “inactive” in each case. Moreover, the IC50 entry in series [2] (thp-1), in series [3], in series [5] and in series [7] was “Not Active” each time.

As to `O=C(c1ccc2ccccc2n1)N1CCc2c([nH]c3ccccc23)C1`, the IC90 result in series [2] (THP-1), in series [3], in series [5] and in series [7] was “inactive” throughout. In addition, the IC50 result in series [2] (thp-1), in series [3], in series [5] and in series [7] was “Not Active” throughout.

With `C[C@@H]1[C@H](O)[C@@H](C)/C=C/C=C/C=C/C=C/C=C/C=C/C=C/[C@H](O[C@@H]2O[C@H](C)[C@@H](O)[C@H](N)[C@@H]2O)C[C@@H]2O[C@](O)(C[C@@H](O)C[C@@H](O)[C@H](O)CC[C@@H](O)C[C@@H](O)CC(=O)O[C@H]1C)C[C@H](O)[C@H]2C(=O)O` [AMPHOTERICIN B], the 90% effect concentration (IC90) was determined as 0.5 µM in series [2] (setting [11]); 0.4 µM in series [3] (Leishmania donovani, 72 h); 0.4 µM in series [5] (Leishmania donovani, 72 h). Moreover, the half-inhibitory concentration (IC50) is 0.3 µM in series [3] (setting [9]), 0.3 µM in series [5] (setting [9]) and “Not Active” in series [7]. In addition, the IC90 result in series [7] is “inactive”.

`N=C(N)c1ccc(OCCCCCOc2ccc(C(=N)N)cc2)cc1` [PENTAMIDINE]: the IC90 was 3.1 µM in series [2] (setting [11]); 6.1 µM in series [3] (Leishmania donovani, 72 h); above 29.4 µM in series [5] (Leishmania donovani, 72 h); 0.007 µM in series [7] (Trypanosoma brucei, 72 h). Besides, the IC50 is 2 µM in series [2] (Leishmania donovani, THP-1, 72 h, read-out: IC50); 4.8 µM in series [3] (setting [9]); above 29.4 µM in series [5] (setting [9]); 0.0041 µM in series [7] (setting [10]).

On to `O=C(N1CCOCC1)N1CCc2c([nH]c3ccccc23)C1`, for which the IC90 entry in series [2] (THP-1), in series [3], in series [5] and in series [7] was “inactive” each time. The half-maximal inhibitory concentration (IC50) result in series [2] (thp-1), in series [3], in series [5] and in series [7] was “Not Active” throughout.
